Data from ChEMBL document CHEMBL1148989, “Meroterpenoid MAPKAP (MK2) inhibitors isolated from the indonesian marine sponge Acanthodendrilla sp” (J Nat Prod, 2004).

Target: MAP kinase-activated protein kinase 2 (Homo sapiens, UniProt P49137)
Assay: Inhibition of MK2

Chain of MAP kinase-activated protein kinase 2 (P49137 whole entry): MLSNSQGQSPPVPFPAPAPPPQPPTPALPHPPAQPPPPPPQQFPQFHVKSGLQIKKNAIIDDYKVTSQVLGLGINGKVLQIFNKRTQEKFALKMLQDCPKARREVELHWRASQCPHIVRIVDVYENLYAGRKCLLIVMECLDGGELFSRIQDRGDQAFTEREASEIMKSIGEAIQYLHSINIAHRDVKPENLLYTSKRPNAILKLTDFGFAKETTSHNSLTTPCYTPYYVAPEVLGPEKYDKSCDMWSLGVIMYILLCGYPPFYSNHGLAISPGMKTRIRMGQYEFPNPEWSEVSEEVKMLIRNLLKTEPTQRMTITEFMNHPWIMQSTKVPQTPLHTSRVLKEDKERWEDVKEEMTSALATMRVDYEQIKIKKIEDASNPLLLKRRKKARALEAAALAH

IC50 [µM]	SMILES
9.6	CC1=C(CC/C(C)=C/Cc2cc(C(=O)O)ccc2O)[C@@]2(C)CCCC(C)(C)[C@@H]2CC1
20	CC1=CC[C@H]2[C@@](C)(CC[C@H]3C(C)(C)CCC[C@]23C)[C@@H]1Cc1cc(C(=O)O)ccc1O
